Measured values as given in publication PMC4710668, “Bioactivation of food genotoxicants 5-hydroxymethylfurfural and furfuryl alcohol by sulfotransferases from human, mouse and rat: a comparative study” (Archives of Toxicology, 2014).
Several values for one entry are separate records, joined by “and”; a condition that tells them apart may be missing. Equal entries are not always repeated. Marks after values point to notes of the source that are not given here.

How the values were obtained:
Test in all cases: FFA sulfoconjugation assay (N6-MF-A formation with adenosine as scavenger)
Type in all cases: biochemical
hSULT1A2 = molecular target: T1, hSULT1A2 (Homo sapiens, UniProt P50226)
T1 construct: made in house; host or cells: Salmonella typhimurium TA1538 (cytosolic fraction, not purified)
How it was run: (§1)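 Quadruplicate incubations of FFA with SULT-expressing TA1538 cytosol and 10 mM adenosine, 20 min at 37 °C. Quantitation of N6-MF-A by UPLC-MS/MS with summed MRM signals against [15N5]N6-MF-A. Values were corrected by subtracting duplicate SULT-deficient cytosol controls.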

hSULT2B1b = molecular target: T2, hSULT2B1b (Homo sapiens, UniProt O00204)
T2 construct: made in house; host or cells: Salmonella typhimurium TA1538 (cytosolic fraction, not purified)
T2 sequence (O00204 1-365): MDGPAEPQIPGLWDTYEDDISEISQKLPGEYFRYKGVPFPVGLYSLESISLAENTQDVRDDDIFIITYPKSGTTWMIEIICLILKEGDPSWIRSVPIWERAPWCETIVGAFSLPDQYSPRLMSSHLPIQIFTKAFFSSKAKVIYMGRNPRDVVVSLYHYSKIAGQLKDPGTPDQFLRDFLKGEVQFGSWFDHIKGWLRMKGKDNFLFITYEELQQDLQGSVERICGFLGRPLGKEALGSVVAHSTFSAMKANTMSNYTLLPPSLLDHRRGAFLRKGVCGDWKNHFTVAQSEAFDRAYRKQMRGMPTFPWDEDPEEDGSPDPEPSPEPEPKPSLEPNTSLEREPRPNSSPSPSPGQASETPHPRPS
How it was run: as §1

hSULT2A1 = molecular target: T3, hSULT2A1 (Homo sapiens, UniProt Q06520)
T3 construct: made in house; host or cells: Salmonella typhimurium TA1538 (cytosolic fraction, not purified)
T3 sequence (Q06520 1-285): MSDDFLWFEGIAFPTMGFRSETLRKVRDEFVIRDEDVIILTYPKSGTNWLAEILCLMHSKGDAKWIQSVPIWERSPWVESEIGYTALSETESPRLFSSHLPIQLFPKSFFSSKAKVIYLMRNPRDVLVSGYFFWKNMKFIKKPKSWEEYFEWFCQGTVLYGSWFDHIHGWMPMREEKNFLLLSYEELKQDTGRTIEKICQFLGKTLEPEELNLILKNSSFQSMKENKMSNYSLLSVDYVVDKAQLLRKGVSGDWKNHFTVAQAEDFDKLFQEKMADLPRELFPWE
How it was run: as §1

rSult1a1 = molecular target: T4, rSult1a1 (Rattus norvegicus, UniProt P17988); conditions: 1 mM FFA
T4 construct: made in house; host or cells: Salmonella typhimurium TA1538 (cytosolic fraction, enzyme not purified)
How it was run: as §1

T4 sequence (P17988 whole entry): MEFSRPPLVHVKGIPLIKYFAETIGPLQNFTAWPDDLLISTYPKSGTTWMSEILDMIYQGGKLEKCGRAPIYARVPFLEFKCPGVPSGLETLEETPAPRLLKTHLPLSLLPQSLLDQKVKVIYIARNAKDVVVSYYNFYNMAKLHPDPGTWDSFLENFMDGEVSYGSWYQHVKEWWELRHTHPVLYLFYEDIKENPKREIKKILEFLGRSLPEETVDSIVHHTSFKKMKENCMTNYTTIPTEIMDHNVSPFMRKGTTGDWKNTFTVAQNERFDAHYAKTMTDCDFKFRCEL
T1 sequence (P50226 whole entry): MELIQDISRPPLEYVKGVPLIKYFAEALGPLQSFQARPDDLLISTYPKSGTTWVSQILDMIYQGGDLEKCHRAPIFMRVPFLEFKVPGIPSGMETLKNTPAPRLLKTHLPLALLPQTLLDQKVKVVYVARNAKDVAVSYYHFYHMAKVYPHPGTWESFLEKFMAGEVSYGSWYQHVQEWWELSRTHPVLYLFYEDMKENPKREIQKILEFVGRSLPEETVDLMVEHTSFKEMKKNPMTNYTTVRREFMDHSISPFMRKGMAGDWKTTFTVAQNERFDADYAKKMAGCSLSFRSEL

## OCc1ccco1 [FFA, furfuryl alcohol]
hSULT1A2; 0.1 mM FFA
  Rate of N6-MF-A formation: <18 fmol N ^6-MF-A/mg/min
hSULT1A2; 1 mM FFA
  Rate of N6-MF-A formation: 34.8 ± 0.5 fmol N ^6-MF-A/mg/min
hSULT1A2; 1 mM FFA, corrected by actual SULT concentration in the cytosolic preparation
  Rate of N6-MF-A formation (corr.): 2,480 ± 30 fmol N ^6-MF-A/mg/min
hSULT1A2; 10 mM FFA
  Rate of N6-MF-A formation: 150 ± 4 fmol N ^6-MF-A/mg/min
hSULT2B1b; 0.1 mM FFA
  Rate of N6-MF-A formation: <18 fmol N ^6-MF-A/mg/min
hSULT2B1b; 1 mM FFA
  Rate of N6-MF-A formation: <20 fmol N ^6-MF-A/mg/min
hSULT2B1b; 10 mM FFA
  Rate of N6-MF-A formation: <44 fmol N ^6-MF-A/mg/min
hSULT2A1; 0.1 mM FFA
  Rate of N6-MF-A formation: <18 fmol N ^6-MF-A/mg/min
hSULT2A1; 1 mM FFA
  Rate of N6-MF-A formation: 37.0 ± 0.6 fmol N ^6-MF-A/mg/min
hSULT2A1; 1 mM FFA, corrected by SULT concentration reported in Meinl et al. [2006]
  Rate of N6-MF-A formation (corr.): 2,110 ± 40^b fmol N ^6-MF-A/mg/min
hSULT2A1; 10 mM FFA
  Rate of N6-MF-A formation: 386 ± 6 fmol N ^6-MF-A/mg/min
rSult1a1
  Rate of N6-MF-A formation: 31.8 ± 0.8 fmol N ^6-MF-A/mg/min
rSult1a1; corrected by actual SULT concentration in the cytosolic preparation
  Rate of N6-MF-A formation (corr.): 24,400 fmol N ^6-MF-A/mg/min and 24,400 ± 600 fmol N ^6-MF-A/mg/min
rSult1a1; corrected rates
  ratio of N6-MF-A formation, rSult1a1 vs rSult1b1: ~71 fold
  ratio of N6-MF-A formation, rSult1a1 vs rSult1c1: about 6 fold
